Reference: patent EP4631940A1, “COMPOUND TARGETING PAN-KRAS PROTEIN DEGRADATION AGENT AND USE THEREOF” (Betta Pharmaceuticals Co., Ltd., priority 2022, dated 2024)

Biological target: KRAS G12D (Homo sapiens, UniProt P01116, G12D)
Test: not given
Conditions: not given

Sequence of KRAS G12D (P01116 1-188 isoform P01116-2 G12D): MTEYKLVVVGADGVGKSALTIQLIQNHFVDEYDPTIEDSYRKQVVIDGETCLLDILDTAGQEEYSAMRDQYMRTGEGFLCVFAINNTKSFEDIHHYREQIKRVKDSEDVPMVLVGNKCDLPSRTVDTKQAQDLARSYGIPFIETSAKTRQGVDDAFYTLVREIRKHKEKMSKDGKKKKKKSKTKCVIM

With C=C1CN2[C@H](CN3CCC(c4cn([C@H](C(=O)N5C[C@H](O)C[C@H]5C(=O)N[C@@H](C)c5ccc(-c6scnc6C)cc5)C(C)C)nn4)CC3)CC[C@@]2(COc2nc(N3CCC[C@@](C)(O)C3)c3cnc(-c4cc(O)cc5ccc(F)c(CC)c45)c(F)c3n2)C1 [Compound 123] the DC50 was 122 nM.

Tested on: AGS
Test: Cell proliferation experiment (CellTiter-Glo)
Type: cell-based
Conditions: AGS, KRAS mutation type G12D; 96 h incubation; read-out: IC50(nM) AGS

In order of rising IC50:
1. (2S,4R)-1-((S)-2-(4-(5-(7-((7-(8-ethyl-7-fluoro-3-hydroxynaphthalen-1-yl)-8-fluoro-4-((R)-3-hy droxy-3-methylpiperidin-1-yl)pyrido[4,3-d]pyrimidin-2-yl)oxy)methyl)cyclopropyl)methyl)-2,7-azaspiro[3.5]nonan-2-yl)pyrazin-2-yl)-1H-1,2,3-triazol-1-yl)-3-methylbutanoyl)-4-hydroxy-N-(( S)-1-(4-methylthiazol-5-yl)phenyl)ethyl)pyrrolidine-2-carboxamide [Compound 168]  5.6 nM
2. CCc1c(F)ccc2cc(O)cc(-c3ncc4c(N5CCC[C@@](C)(O)C5)nc(OCC5(CN6CCN(Cc7cnc(-c8cn([C@H](C(=O)N9C[C@H](O)C[C@H]9C(=O)N[C@@H](C)c9ccc(-c%10scnc%10C)cc9)C(C)C)nn8)s7)CC6)CC5)nc4c3F)c12 [Compound 187]  7.5 nM
3. CCc1c(F)ccc2cc(O)cc(-c3ncc4c(N5CCC[C@@](C)(O)C5)nc(OCC5(CN6CCC(Oc7ccc(-c8cn([C@H](C(=O)N9C[C@H](O)C[C@H]9C(=O)N[C@@H](C)c9ccc(-c%10scnc%10C)cc9)C(C)C)nn8)nn7)CC6)CC5)nc4c3F)c12 [Compound 167]  8.8 nM
4. CCc1c(F)ccc2cc(O)cc(-c3ncc4c(N5CCC[C@@](C)(O)C5)nc(OCC5(CN6CCC(Oc7ncc(-c8cn([C@H](C(=O)N9C[C@H](O)C[C@H]9C(=O)N[C@@H](C)c9ccc(-c%10scnc%10C)cc9)C(C)C)nn8)s7)CC6)CC5)nc4c3F)c12 [Compound 181]  11 nM
5. (2S,4R)-1-((S)-2-(4-(5-((((3R,7aR)-7a-(((7-(8-ethyl-7-fluoro-3-hydroxynaphthalen-1-yl)-8-fluor o-4-((R)-3-hydroxy-3-methylpiperidin-l-yl)pyrido[4,3-d]pyrimidin-2-yl)oxy)methyl)hexahydro-1H-pyrrolizin-3-yl)methoxy)pyrazin-2-yl)-1H-1,2,3-triazol-1-yl)-3-methylbutanoyl)-4-hydroxy-N-((S)-1-(4-(4-methylthiazol-5-yl)phenyl)ethyl)pyrrolidine-2-carboxamide [Compound 188]  12 nM
6. CCc1c(F)ccc2cc(O)cc(-c3ncc4c(N5CCC[C@@](C)(O)C5)nc(OCC5(CN6CCC(Oc7ccc(-c8cn([C@H](C(=O)N9C[C@H](O)C[C@H]9C(=O)N[C@@H](CO)c9ccc(-c%10scnc%10C)cc9)C(C)C)nn8)cn7)CC6)CC5)nc4c3F)c12 [Compound 171]  13 nM
7. (2S,4R)-1-((S)-2-(4-(3-((1-((1-((7-(8-ethyl-7-fluoro-3-hydroxynaphthalen-1-yl)-8-fluoro-4-((R)-3-hydroxy-3-methylpiperidin-1-yl)pyrido[4,3-d]pyrimidin-2-yl)oxy)methyl)cyclopropyl)methyl) piperidin-4-yl)methyl)amino)bicyclo[1.1.1]pent-1-yl)-1H-1,3-triazol-1-yl)-3-methylbutanoyl)-4-hydroxy-N-((S)-1-(4-(4-methylthiazol-5-yl)phenyl)ethyl)pyrrolidine-2-carboxamide [Compound 180]  20 nM
8. (2S,4R)-1-((S)-2-(4-(5-(1-((1-((7-(8-ethyl-7-fluoro-3-hydroxynaphthalen-1-yl)-8-fluoro-4-((R)-3 -hydroxy-3-methylpiperidin-1-yl)pyrido[4,3-d]pyrimidin-2-yl)oxy)methyl)cyclopropyl)methyl)p iperidin-4-yl)oxy)pyrimidin-2-yl)-1H-1,2,3-triazol-1-yl)-3-methylbutanoyl)-4-hydroxy-N-((S)-1-(4-hydroxyl-N-(4-(4-methylthiazol-5-yl)phenyl)ethyl)pyrrolidine-2-carboxamide [Compound 169]  20 nM
9. CCc1c(F)ccc2cc(O)cc(-c3ccc4c(N5CCC[C@@](C)(O)C5)nc(OCC5(CN6CCC7(CC6)CN(c6cnc(-c8cn([C@H](C(=O)N9C[C@H](O)C[C@H]9C(=O)N[C@@H](C)c9ccc(-c%10scnc%10C)cc9)C(C)C)nn8)cn6)C7)CC5)nc4c3F)c12 [Compound 186]  20 nM
10. (2S,4R)-1-((S)-2-(4-(1-((1-((1-(((7-(8-ethyl-7-fluoro-3-hydroxynaphthalen-1-yl)-8-fluoro-4-((R)-3-hydroxy-3-methylpiperidin-1-yl)pyrido[4,3-d]pyrimidin-2-yl)oxy)methyl)piperidin-4-yl)methy l)azetidin-3-yl)-1H-1,2,3-triazol-1-yl)-3-methylbutanoyl)-4-hydroxy-N-((S)-1-(4-(4-methylthiaz ol-5-yl)phenyl)ethyl)pyrrolidine-2-carboxamide [Compound 129]  37 nM
11. CCc1c(F)ccc2cc(O)cc(-c3ncc4c(N5CCC[C@@](C)(O)C5)nc(OCC5(CN6CCN(C7CCN(c8cc([C@H](C(=O)N9C[C@H](O)C[C@H]9C(=O)N[C@H](C)c9ccc(-c%10scnc%10C)cc9)C(C)C)on8)CC7)CC6)CC5)nc4c3F)c12 [Compound 164]  38 nM
12. (3S,7aS)-7a-((7-(7-(8-ethyl-7-fluoro-3-hydroxynaphthalen-1-yl)-8-fluoro-4-((R)-3-hydroxy-3-m ethylpiperidin-1-yl)pyrido[4,3-d]pyrimidin-2-yl)pyrimidin-2-yl)oxy)methyl)-6-methylenehexahy dro-1H-pyrrolizin-3-yl)methyl-4-(((5-(R)-1-(2S,4R)-4-hydroxy-2-(((S)-1-(4-(4-methylthiazol-5-yl)phenyl)ethyl)carbamoyl)pyrrolidin-1-yl)-3-methyl-1-oxobutan-2-yl)isoxazol-3-yl)oxy)methyl )piperidine-1-carboxylate [Compound 125]  52 nM

Same assay, conditions: Homo sapiens, AGS, 96 h, read-out: IC50(nM) AGS

In order of falling IC50:
1. C=C1CN2[C@H](CN3CCC(c4cn([C@H](C(=O)N5C[C@H](O)C[C@H]5C(=O)N[C@@H](C)c5ccc(-c6scnc6C)cc5)C(C)C)nn4)CC3)CC[C@@]2(COc2nc(N3CCC[C@@](C)(O)C3)c3cnc(-c4cc(O)cc5ccc(F)c(CC)c45)c(F)c3n2)C1 [Compound 123]  82 nM
2. CCc1c(F)ccc2cc(O)cc(-c3ncc4c(N5CCC[C@@](C)(O)C5)nc(OCC5(CN6CCN(C7CC(c8cn([C@H](C(=O)N9C[C@H](O)C[C@H]9C(=O)N[C@@H](C)c9ccc(-c%10scnc%10C)cc9)C(C)C)nn8)C7)CC6)CC5)nc4c3F)c12 (stereo partly drawn) [Compound 165, (2S,4R)-1-((S)-2-(4-(3-(4-((1-(((7-(8-ethyl-7-fluoro-3-hydroxynaphthalen-1-yl)-8-fluoro-4-((R)-3-hydroxy-3-methylpiperidin-1-yl)pyrido[4,3-d]pyrimidin-2-yl)oxy)methyl)cyclopropyl)methyl)piperazin-1-yl)cyclobutyl)-1H-1,2,3-triazol-1-yl)-3-methylbutanoyl)-4-hydroxy-N-((S)-1-(4-(4-methylthiazol-5-yl)phenyl)ethyl)pyrrolidine-2-carboxamide]  9.2 nM

Same assay, conditions: read-out: IC50(nM) AGS

In order of falling IC50:
1. C#Cc1c(F)ccc2cc(O)cc(-c3ncc4c(N5CCCOCC5)nc(OC[C@]56CCCN5[C@@H](COC(=O)N5CCC7(CC5)CC(C(=O)N[C@H](C(=O)N5C[C@H](O)C[C@H]5C(=O)N[C@@H](C)c5ccc(-c8scnc8C)cc5)C(C)(C)C)C7)CC6)nc4c3F)c12 [Compound 90]  83 nM
2. C=C1CN2[C@H](COC(=O)N3CCN(c4cc([C@H](C(=O)N5C[C@H](O)C[C@H]5C(=O)N[C@@H](C)c5ccc(-c6scnc6C)cc5)C(C)C)on4)CC3)CC[C@@]2(COc2nc(N3CCC[C@@](C)(O)C3)c3cnc(-c4cc(O)cc5ccc(F)c(CC)c45)c(F)c3n2)C1 [Compound 110]  52 nM
3. (2S,4R)-1-((S)-2-(4-(6-((1-((1-(((7-(8-ethyl-7-fluoro-3-hydroxynaphthalen-1-yl)-8-fluoro-4-((R)-3-hydroxy-3-methylpiperidin-1-yl)pyrido[4,3-d]pyrimidin-2-yl)oxy)methyl)cyclopropyl)methyl) -4-methylpiperidin-4-yl)oxy)piperidin-3-yl)-1H-1,2,3-triazol-1-yl)-3-methylbutanoyl)-4-hydroxy -N-((S)-1-(4-(4-methylthiazol-5-yl)phenyl)ethyl)pyrrolidine-2-carboxamide [Compound 176]  33 nM
4. (2S,4R)-1-((S)-2-(4-(6-((4-((1-(((7-(8-ethyl-7-fluoro-3-hydroxynaphthalen-1-yl)-8-fluoro-4-((R)-3-hydroxy-3-methylpiperidin-1-yl)pyrido[4,3-d]pyrimidin-2-yl)oxy)methyl)cyclopropyl)methyl) pyridin-1-yl)methyl)pyridin-3-yl)-1H-1,2,3-triazol-1-yl)-3-methylbutanoyl)-4-hydroxy-N-((S)-1-(4-(4-methylthiazol-5-yl)phenyl)ethyl)pyrrolidine-2-carboxamide [Compound 179]  27 nM
5. (2S,4R)-1-((S)-2-(4-(1-((1-((1-(((7-(8-ethyl-7-fluoro-3-hydroxynaphthalen-1-yl)-8-fluoro-4-((R)-3-hydroxy-3-methylpiperidin-1-yl)pyrido[4,3-d]pyrimidin-2-yl)oxy)methyl)cyclopropyl)methyl) piperidin-4-yl)methyl)-1H-pyrazol-4-yl)-1H-1,2,3-triazol-1-yl)-3-methylbutanoyl)-4-hydroxy-N-((S)-1-(4-(4-methylthiazol-5-yl)phenyl)ethyl)pyrrolidine-2-carboxamide [Compound 182]  24 nM
6. (2S,4R)-1-((S)-2-(4-(5-((4-((1-(((7-(8-ethyl-7-fluoro-3-hydroxynaphthalen-1-yl)-8-fluoro-4-((R)-3-hydroxy-3-methylpiperidin-1-yl)pyrido[4,3-d]pyrimidin-2-yl)oxy)methyl)cyclopropyl)methyl) piperazin-1-yl)methyl)piperazin-3-yl)-1H-1,2,3-triazol-1-yl)-3-methylbutanoyl)-4-hydroxy-N-((S )-1-(4-(4-methylthiazol-5-yl)phenyl)ethyl)pyrrolidine-2-carboxamide [Compound 177]  4.2 nM
7. CCc1c(F)ccc2cc(O)cc(-c3ncc4c(N5CCC[C@@](C)(O)C5)nc(OCC5(CN6CCC(Oc7cnc(-c8cn([C@H](C(=O)N9C[C@H](O)C[C@H]9C(=O)N[C@@H](CO)c9ccc(-c%10ccnn%10CC)cc9)C(C)C)nn8)cn7)CC6)CC5)nc4c3F)c12 [Compound 172]  3.6 nM
